Assay [1] is described as follows: Antioxidant activity assessed as superoxide radical scavenging activity after 20 mins by spectrophotometric analysis. The format is functional.
For assay [2], the system named is Radical scavenging activity. Kind of assay: Antioxidant activity assessed as DPPH radical scavenging activity after 30 mins by spectrophotometric analysis. The assay is classed as functional. In general terms: DPPH is a stable violet radical that fades when it is reduced.

Molecules are shown by their SMILES. Some results are limits rather than exact numbers.

For the compound `COc1cc([C@@H]2OC[C@@](O)(Cc3ccc(O[C@@H]4O[C@H](CO)[C@@H](O)[C@H](O)[C@H]4O)c(OC)c3)[C@H]2CO)ccc1O`, the EC50 is 25.3 µM in assay [1] and over 100 µM in assay [2].
For the compound `COc1cc([C@H]2c3cc(O[C@@H]4O[C@H](CO)[C@@H](O)[C@H](O)[C@H]4O)c(OC)cc3C[C@@](O)(CO)[C@@H]2CO)ccc1O`, the results for the EC50 in assay [1] and in assay [2] were 39.3 µM and over 100 µM, respectively.
Consider `C/C=C1/[C@H](O[C@@H]2O[C@H](CO)[C@@H](O)[C@H](O)[C@H]2O)OC=C(C(=O)OC)[C@H]1CC(=O)OC[C@H]1O[C@@H](O[C@@H]2OC=C(C(=O)OC)[C@@H](CC(=O)OCCc3ccc(O)c(O)c3)/C2=C\C)[C@H](O)[C@@H](O)[C@@H]1O` [JASPOLYOSIDE], for which the results for the EC50 in assay [1] and in assay [2] were 4.97 µM and over 100 µM, respectively.
For `COc1cc(/C=C/CO[C@H]2O[C@@H](CO)[C@H](O)[C@@H](O)[C@@H]2O)cc(OC)c1O[C@@H]1O[C@H](CO)[C@@H](O)[C@H](O)[C@H]1O` [ISOSYRINGINOSIDE], in that order: 14.1 µM and over 100 µM.
For `COc1cc([C@H]2OC[C@H]3[C@@H]2CO[C@@H]3c2cc(OC)c(O[C@@H]3O[C@H](CO)[C@@H](O)[C@H](O)[C@H]3O)c(OC)c2)cc(OC)c1O[C@H]1O[C@@H](CO)[C@H](O)[C@@H](O)[C@@H]1O` [LIRIODENDRTACHIOSIDE], the EC50 in assay [1] is 16 µM; in assay [2] it was over 100 µM.
For `COc1cc(C[C@@H]2CO[C@@H](c3cc(OC)c(O)c(OC)c3)[C@@H]2CO)ccc1O[C@@H]1O[C@H](CO)[C@@H](O)[C@H](O)[C@H]1O` [ARMANDISIDE], the figures for the EC50 in assay [1] and in assay [2] were 10.6 µM and over 100 µM, respectively.
For the compound `COc1cc(/C=C/C=O)cc(OC)c1O[C@@H]1O[C@H](CO)[C@@H](O)[C@H](O)[C@H]1O` [SINAPALDEHYDE GLUCOSIDE], the EC50 in assay [1] and in assay [2] was over 100 µM throughout.
`OC[C@H]1O[C@@H](OCCc2ccc(O)cc2)[C@H](O)[C@@H](O)[C@@H]1O` [SALIDROSIDE]: the EC50 in assay [1] and in assay [2] was over 100 µM each time.
In the case of `COc1cc(/C=C/CO)cc(OC)c1O[C@@H]1O[C@H](CO)[C@@H](O)[C@H](O)[C@H]1O` [SYRINGIN], the figures for the EC50 in assay [1] and in assay [2] were 70.9 µM and over 100 µM, respectively.
Turning to `OC[C@H]1O[C@@H](OCCc2ccc(O)c(O)c2)[C@H](O)[C@@H](O)[C@@H]1O`, the EC50 in assay [1] was 4.97 µM; in assay [2], 33 µM.
Consider `COc1cc(C[C@]2(O)CO[C@@H](c3ccc(O[C@H]4O[C@@H](CO)[C@H](O)[C@@H](O)[C@@H]4O)c(OC)c3)[C@@H]2CO)ccc1O`, for which the EC50 in assay [1] and in assay [2] was over 100 µM in each case.
Consider `COc1cc(/C=C/C=O)ccc1O[C@@H]1O[C@H](CO)[C@@H](O)[C@H](O)[C@H]1O` [CONIFERYALDEHYDE GLUCOSIDE], for which the EC50 in assay [1] and in assay [2] was over 100 µM each time.
Turning to `C/C=C1/[C@H](O[C@@H]2O[C@H](CO)[C@@H](O)[C@H](O)[C@H]2O)OC=C(C(=O)OC)[C@H]1CC(=O)OCCc1ccc(O)c(O)c1` [OLEUROPEIN], the EC50 in assay [1] worked out at 2.57 µM; in assay [2], 20.8 µM.
As for `C/C=C1/[C@H](O[C@@H]2O[C@H](CO)[C@@H](O)[C@H](O)[C@H]2O)OC=C(C(=O)OC)[C@H]1CC(=O)OC[C@H]1O[C@@H](Oc2c(OC)cc(/C=C/CO)cc2OC)[C@H](O)[C@@H](O)[C@@H]1O` [RETICULOSIDE], the EC50 in assay [1] is 64.1 µM; in assay [2], over 100 µM.
For `COc1cc([C@H]2OC[C@H]3[C@@H]2CO[C@@H]3c2ccc(O[C@@H]3O[C@H](CO)[C@@H](O)[C@H](O)[C@H]3O)c(OC)c2)ccc1O`, in that order: 18.6 µM and over 100 µM.
Consider `C/C=C1/[C@H](O[C@@H]2O[C@H](CO)[C@@H](O)[C@H](O)[C@H]2O)OC=C(C(=O)OC)[C@H]1CC(=O)OCCc1ccc(O)cc1` [LIGSTROSIDE], for which the EC50 in assay [1] and in assay [2] was over 100 µM in each case.
As for `COc1cc([C@H]2OC[C@H]3[C@@H]2CO[C@@H]3c2cc(OC)c(O[C@@H]3O[C@H](CO)[C@@H](O)[C@H](O)[C@H]3O)c(OC)c2)cc(OC)c1O`, the EC50 in assay [1] and in assay [2] was over 100 µM throughout.

The EC50 is the concentration giving half of the maximal effect.

For the origin of these results see ChEMBL document CHEMBL1909498, “Secoiridoid glucosides and related compounds from Syringa reticulata and their antioxidant activities” (Bioorg Med Chem Lett, 2011).
